According to patent US11440947B2, “Peptides and combination of peptides for use in immunotherapy against various tumors” (Immatics Biotechnologies GmbH, priority 2015, dated 2022):

What follows are substances tested on CD8+ T cells (assay: In vitro immunogenicity: in vitro T-cell priming with aAPCs loaded with peptide/MHC complexes and anti-CD28, pMHC multimer readout). Settings: HLA-A*02 restricted peptides; percentage of positive wells among evaluable.
Format: cell-based, human
From the text: In order to obtain information regarding the immunogenicity of the TUMAPs of the present invention, the inventors performed investigations using an in vitro T-cell priming assay based on repeated stimulations of CD8+ T cells with artificial antigen presenting cells (aAPCs) loaded with peptide/MHC complexes and anti-CD28 antibody.
In order to perform in vitro stimulations by artificial antigen presenting cells loaded with peptide-MHC complex (pMHC) and anti-CD28 antibody, the inventors first isolated CD8+ T cells from fresh HLA-A*02 leukapheresis products via positive selection using CD8 microbeads (Miltenyi Biotec, Bergisch-Gladbach, Germany) of healthy donors obtained from the University clinics Mannheim, Germany, after informed consent. PBMCs and isolated CD8+ lymphocytes were incubated in T-cell medium (TCM) until use consisting of RPMI-Glutamax (Invitrogen, Karlsruhe, Germany) supplemented with 10% heat inactivated human AB serum (PAN-Biotech, Aidenbach, Germany), 100 U/ml Penicillin/100 μg/ml Streptomycin (Cambrex, Cologne, Germany), 1 mM sodium pyruvate (CC Pro, Oberdorla, Germany), 20 μg/ml Gentamycin (Cambrex). 2.5 ng/ml IL-7 (PromoCell, Heidelberg, Germany) and 10 U/ml IL-2 (Novartis Pharma, Nürnberg, Germany) were also added to the TCM at this step. Generation of pMHC/anti-CD28 coated beads, T-cell stimulations and readout was performed in a highly defined in vitro system using four different pMHC molecules per stimulation condition and 8 different pMHC molecules per readout condition.
The purified co-stimulatory mouse IgG2a anti human CD28 Ab 9.3 (Jung et al., 1987) was chemically biotinylated using Sulfo-N-hydroxysuccinimidobiotin as recommended by the manufacturer (Perbio, Bonn, Germany). Beads used were 5.6 μm diameter streptavidin coated polystyrene particles (Bangs Laboratories, Illinois, USA).
pMHC used for positive and negative control stimulations were A*0201/MLA-001 (peptide […] (SEQ ID NO. 289) from modified Melan-A/MART-1) and A*0201/DDX5-001 ([…] from DDX5, SEQ ID NO. 290), respectively.
800.000 beads/200 μl were coated in 96-well plates in the presence of 4×12.5 ng different biotin-pMHC, washed and 600 ng biotin anti-CD28 were added subsequently in a volume of 200 μl. Stimulations were initiated in 96-well plates by co-incubating […] CD8+ T cells with 2×10^5 washed coated beads in 200 μl TCM supplemented with 5 ng/ml IL-12 (PromoCell) for 3 days at 37° C. Half of the medium was then exchanged by fresh TCM supplemented with 80 U/ml IL-2 and incubating was continued for 4 days at 37° C. This stimulation cycle was performed for a total of three times. For the pMHC multimer readout using 8 different pMHC molecules per condition, a two-dimensional combinatorial coding approach was used as previously described (Andersen et al., 2012) with minor modifications encompassing coupling to 5 different fluorochromes. Finally, multimeric analyses were performed by staining the cells with Live/dead near IR dye (Invitrogen, Karlsruhe, Germany), CD8-FITC antibody clone SK1 (BD, Heidelberg, Germany) and fluorescent pMHC multimers. For analysis, a BD LSRII SORP cytometer equipped with appropriate lasers and filters was used. Peptide specific cells were calculated as percentage of total CD8+ cells. Evaluation of multimeric analysis was done using the FlowJo software (Tree Star, Oreg., USA). In vitro priming of specific multimer+CD8+ lymphocytes was detected by comparing to negative control stimulations.
Exemplary flow cytometry results after TUMAP-specific multimer staining for 15 peptides of the invention are shown in FIGS. 3 and 6 together with corresponding negative controls.

| Substance | Wells positive [%] |
| --- | --- |
| 264 (TLHDQVHLL; listed as Homo sapiens) [compound 264] | + (<20% = +) |
| 89 (SLAETIFIV; listed as Homo sapiens) [compound 89] | + (<20% = +) |
| 9 (SLITGQDLLSV; listed as Homo sapiens) [compound 9] | + (<20% = +) |
| 263 (SIIEYLPTL; listed as Homo sapiens) [compound 263] | + (<20% = +) |
| 97 (KLFEKSTGL; listed as Homo sapiens) [compound 97] | + (<20% = +) |
| 267 (YLLDMPLWYL; listed as Homo sapiens) [compound 267] | + (<20% = +) |
| 101 (SLLEVNEASSV; listed as Homo sapiens) [compound 101] | + (<20% = +) |
| 260 (ALNESLVEC; listed as Homo sapiens) [compound 260] | + (<20% = +) |
| 157 (ILQDGQFLV; listed as Homo sapiens) [compound 157] | + (<20% = +) |
| 77 (ALYGNVQQV; listed as Homo sapiens) [compound 77] | + (<20% = +) |
| 4 (VLFGELPAL; listed as Homo sapiens) [compound 4] | + (<20% = +) |
| 233 (SLFESLEYL; listed as Homo sapiens) [compound 233] | + (<20% = +) |
| 35 (VIIKGLEEI; listed as Homo sapiens) [compound 35] | + (<20% = +) |
| 246 (ALAGIVTNV; listed as Homo sapiens) [compound 246] | + (<20% = +) |
| 39 (YLEDGFAYV; listed as Homo sapiens) [compound 39] | ++++ (>=70% = ++++) |
| 255 (FLMKNSDLYGA; listed as Homo sapiens) [compound 255] | + (<20% = +) |
| 254 (ALGDKFLLRV; listed as Homo sapiens) [compound 254] | + (<20% = +) |
| 257 (KLIDHQGLYL; listed as Homo sapiens) [compound 257] | + (<20% = +) |
| 236 (KMSELQTYV; listed as Homo sapiens) [compound 236] | + (<20% = +) |
| 121 (ALYVQAPTV; listed as Homo sapiens) [compound 121] | + (<20% = +) |
| 66 (AMFPDTIPRV; listed as Homo sapiens) [compound 66] | + (<20% = +) |
| 242 (KLQEEIPVL; listed as Homo sapiens) [compound 242] | + (<20% = +) |
| 29 (KMISAIPTL; listed as Homo sapiens) [compound 29] | + (<20% = +) |
| 27 (GLLGKVTSV; listed as Homo sapiens) [compound 27] | + (<20% = +) |
| 14 (YTFSGDVQL; listed as Homo sapiens) [compound 14] | + (<20% = +) |
| 17 (GLLPSAESIKL; listed as Homo sapiens) [compound 17] | + (<20% = +) |
| 34 (TLNTLDINL; listed as Homo sapiens) [compound 34] | ++++ (>=70% = ++++) |
| 102 (GLYPVTLVGV; listed as Homo sapiens) [compound 102] | + (<20% = +) |
| 50 (ILLSVLHQL; listed as Homo sapiens) [compound 50] | + (<20% = +) |

Same assay, conditions: percentage of positive donors; CD8+ T cells of healthy HLA-A*02 donors, three stimulation cycles, multimer staining

| Substance | donors |
| --- | --- |
| 288 (SLYKGLLSV; listed as Homo sapiens) [compound 288] | ++++ (>= 70% = ++++) |
| 287 (KIQEILTQV; listed as Homo sapiens) [compound 287] | +++ (50%-69%- +++) |

Same assay, conditions: percentage of positive wells; CD8+ T cells of healthy HLA-A*02 donors, three stimulation cycles, multimer staining

| Substance | wells |
| --- | --- |
| 287 (KIQEILTQV; listed as Homo sapiens) [compound 287] | + (<20% = +) |

What follows are substances tested against HLA-A*02:01 (Homo sapiens, UniProt P04439, D140Y/D185E/D98H/E176V/E277Q/G131W/G231S/I119V/I121R/I166T/I218V/L300P/L318F/N151K/N90K/P208A/P217A/Q86G/Q94H/R138H/R169H/T345S) (assay: MHC binding assay: UV-ligand exchange, ELISA on beta2m of stabilized MHC complexes (peptide exchange yield)). Settings: binding to HLA-A*02:01, UV-ligand exchange, β2m ELISA.
From the text: Candidate peptides for T cell based therapies according to the present invention were further tested for their MHC binding capacity (affinity). The individual peptide-MHC complexes were produced by UV-ligand exchange, where a UV-sensitive peptide is cleaved upon UV-irradiation, and exchanged with the peptide of interest as analyzed. Only peptide candidates that can effectively bind and stabilize the peptide-receptive MHC molecules prevent dissociation of the MHC complexes. To determine the yield of the exchange reaction, an ELISA was performed based on the detection of the light chain (β2m) of stabilized MHC complexes. The assay was performed as generally described in Rodenko et al. (Rodenko et al., 2006).
96 well MAXISorp plates (NUNC) were coated over night with 2 ug/ml streptavidin in PBS at room temperature, washed 4× and blocked for 1 h at 37° C. in 2% BSA containing blocking buffer. Refolded HLA-A*02:01/MLA-001 monomers served as standards, covering the range of 15-500 ng/ml. Peptide-MHC monomers of the UV-exchange reaction were diluted 100 fold in blocking buffer. Samples were incubated for 1 h at 37° C., washed four times, incubated with 2 ug/ml HRP conjugated anti-β2m for 1 h at 37° C., washed again and detected with TMB solution that is stopped with […]. Absorption was measured at 450 nm. Candidate peptides that show a high exchange yield (preferably higher than 50%, most preferred higher than 75%) are generally preferred for a generation and production of antibodies or fragments thereof, and/or T cell receptors or fragments thereof, as they show sufficient avidity to the MHC molecules and prevent dissociation of the MHC complexes.

| Substance | Peptide exchange (MHC class I binding score, peptide exchange yield) |
| --- | --- |
| 178 (SLVSWQLLL; listed as Homo sapiens) [compound 178] | ++++ (>75% = ++++) |
| 161 (NLLDENVCL; listed as Homo sapiens) [compound 161] | ++++ (>75% = ++++) |
| 269 (GLLDCPIFL; listed as Homo sapiens) [compound 269] | ++++ (>75% = ++++) |
| 206 (GLDAFRIFL; listed as Homo sapiens) [compound 206] | ++++ (>75% = ++++) |
| 84 (FLLEREQLL; listed as Homo sapiens) [compound 84] | ++++ (>75% = ++++) |
| 6 (FLNAIETAL; listed as Homo sapiens) [compound 6] | ++++ (>75% = ++++) |
| 1 (KLQEKIQEL; listed as Homo sapiens) [compound 1] | ++++ (>75% = ++++) |
| 92 (RLFEEVLGV; listed as Homo sapiens) [compound 92] | ++++ (>75% = ++++) |
| 17 (GLLPSAESIKL; listed as Homo sapiens) [compound 17] | ++++ (>75% = ++++) |
| 234 (VLLNEILEQV; listed as Homo sapiens) [compound 234] | ++++ (>75% = ++++) |
